39 molecules from patent US8541363B2, “Pyruvamide compounds as inhibitors of dust mite group 1 peptidase allergen and their use” (St George's Hosptial Medical School, priority 2010, dated 2013) can be followed below.

By IC50 is commonly meant the concentration that inhibits the measured activity by half.

Where two headings read alike, the source gives them in different places. A value given as a limit tells only on which side of the number the result lay.

The target of the assay is Der p 1 (Dermatophagoides pteronyssinus (European house dust mite), UniProt P08176). The assay can be described thus: Der p 1 enzyme activity assay (FRET fluorogenic substrate). In kind it is biochemical. Particulars: read-out: Der p 1 IC50. The protocol:
The fluorogenic substrate used for measuring Der p 1 proteolytic activity was 2-aminobenzoylvalylalanylnorleucylseryl-(3-nitro)tyrosinyl aspartamide.
Test compounds were dissolved in dry DMSO and maintained at 4° C. as stock solutions until being diluted for use in screening assays. Final concentration of DMSO in all enzymatic assays was 0.5% v/v.
Reaction mixtures were assembled in a 96-well plate format (Perkin Elmer Optiplate 96F, Perkin Elmer LAS, Seer Green, Buckinghamshire, UK) using a Perkin Elmer MultiPROBE II Plus HTS EX robot with Gripper attachment. […] Dithiothreitol (DTT, 10 μL/well, 1 mM final concentration) was then added together with 10 μL of Der p 1 dissolved at 2.5 μg/mL in reaction buffer supplemented with 1 mM DTT. […] The plate was immediately transferred to a fluorescence plate reader (Perkin Elmer Fusion Alpha-FP or Perkin Elmer Envision) equipped with a temperature-controlled carrier set at 30° C. and the reaction followed by excitation/emission at 330/420 nm.
Inhibitory activity was analysed from progress curves of reactions in the presence of a range of inhibitor concentrations.
Initial velocity in each well was converted to fractional activity by Equation 1: Fractional activity=(Initial rate at inhibitor concentration[X]/Initial rate at inhibitor concentration zero)*100 Equation 1:
Then, IC50 was determined by fitting the data of fractional activity and inhibitor concentration to a 4-parameter logistic curve, using Equation 2: V=Vmin+[Vmax−Vmin]/[1+(X/IC50)Hillslope] […] Biological Data—Der p 1 Enzyme Assay

Sequence of Der p 1 (P08176 99-320): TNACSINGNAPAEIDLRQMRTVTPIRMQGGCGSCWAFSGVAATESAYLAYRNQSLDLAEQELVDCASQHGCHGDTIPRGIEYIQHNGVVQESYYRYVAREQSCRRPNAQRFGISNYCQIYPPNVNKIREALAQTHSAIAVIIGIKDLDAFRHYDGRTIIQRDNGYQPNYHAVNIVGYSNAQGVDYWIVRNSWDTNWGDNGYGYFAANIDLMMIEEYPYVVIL

For `CC(C)[C@H](NC(=O)[C@H](C)NC(=O)[C@@H](NC(=O)c1ccnc2ccccc12)C(C)(C)C)C(=O)C(N)=O` [PVA-156], for the setting “threshold stated in text”, the 50% inhibitory concentration (IC50) was < 20 nM.
Take `CC(C)[C@H](NC(=O)[C@H](C)NC(=O)[C@@H](NC(=O)c1ccnc2ccccc12)C(C)(C)C)C(=O)C(=O)NCC(=O)N1CCc2ccccc2C1` [PVA-186]: the half-inhibitory concentration (IC50) (threshold stated in text) is < 20 nM.
Same read-out and setting: the value for `CC(C)[C@H](NC(=O)[C@H](C)NC(=O)[C@@H](N1Cc2ccccc2C1=O)C(C)(C)C)C(=O)C(=O)NCC(=O)N1CCc2ccccc2C1` [PVA-212] was < 20 nM; that for `CC(C)[C@H](NC(=O)[C@H](C)NC(=O)[C@H](Cc1cccc2ccccc12)NC(=O)c1ccccc1)C(=O)C(=O)NCC(=O)N1CCN(C)CC1` [PVA-137] was < 20 nM.
On the same count and under the same terms, the value for `CC(C)[C@H](NC(=O)[C@H](C)NC(=O)[C@@H](NC(=O)c1ccccc1)C(C)(C)C)C(=O)C(=O)NC1CC1` [PVA-116] was < 20 nM; that for `CCCCC(NC(=O)[C@H](C)NC(=O)[C@H](Cc1ccccc1)NC(=O)c1ccccc1)C(=O)C(=O)N1CCN(C)CC1` (some centres unmarked) [PVA-007] was < 2000 nM; that for `CC(C)[C@H](NC(=O)[C@H](C)NC(=O)[C@@H](NC(=O)c1ccccc1)C(C)(C)c1ccccc1)C(=O)C(=O)NC1CC1` [PVA-142] was < 200 nM.
Turning to `CC(C)[C@H](NC(=O)[C@H](C)NC(=O)[C@@H](NC(=O)c1ccccc1)C(C)(C)C)C(=O)C(=O)NCc1ccc(C(N)=O)cc1` [PVA-202], the IC50 (threshold stated in text) was < 20 nM.
On the same count and under the same terms, the value for `CC(C)[C@H](NC(=O)[C@H](C)NC(=O)[C@@H](NC(=O)c1ccc(=O)[nH]c1)C(C)(C)C)C(=O)C(=O)NC1CCCCC1` [PVA-084] was < 200 nM; that for `CC(C)[C@H](NC(=O)[C@H](C)NC(=O)[C@@H](NC(=O)c1ccccc1)C(C)(C)C)C(=O)C(=O)N[C@H]1CCc2ccccc21` [PVA-110] was < 200 nM.
The same measure, in the same setting: the value for `CC(C)[C@H](NC(=O)[C@H](C)NC(=O)[C@H](Cc1ccccc1)NC(=O)c1ccccc1)C(=O)C(=O)NC1CCCCC1` [PVA-003] was < 20 nM.
On to `CC(C)[C@H](NC(=O)[C@H](C)NC(=O)[C@@H](NC(=O)c1ccccc1N1CCN(C)CC1)C(C)(C)C)C(=O)C(=O)NCc1ccccc1` [PVA-201], for which the IC50 (threshold stated in text) was < 200 nM.
On the same count and under the same terms, the value for `CC(C)[C@H](NC(=O)[C@H](C)NC(=O)C1CCCN1C(=O)c1ccccc1)C(=O)C(=O)NCC(=O)N1CCN(C)CC1` (some centres unmarked) [PVA-145] was < 200 nM.
With `CCCC[C@H](NC(=O)[C@H](C)NC(=O)[C@@H](NC(=O)c1ccccc1)C(C)(C)C)C(=O)C(=O)NC1CCCCC1` [PVA-037], the half-inhibitory concentration (IC50) reads like this: (Table 1) 7.85 nM; (threshold stated in text) < 20 nM.
With `CC(=O)Nc1cc(C(=O)N[C@H](C(=O)N[C@@H](C)C(=O)N[C@H](C(=O)C(=O)NCc2ccccc2)C(C)C)C(C)(C)C)ccn1` [PVA-064], the IC50 (threshold stated in text) is < 200 nM.
Consider `CC(C)[C@H](NC(=O)[C@H](C)NC(=O)[C@H](Cc1ccccc1)NC(=O)c1cccc(OCCN2CCCC2)c1)C(=O)C(=O)NC1CCCCC1` [PVA-065], for which, under “threshold stated in text”, the IC50 was < 200 nM.
On the same count and under the same terms, then `CC(C)[C@H](NC(=O)[C@H](C)NC(=O)[C@@H](NC(=O)c1ccccc1)C(C)(C)c1ccccc1)C(=O)C(N)=O` [PVA-143], with < 20 nM.
Same read-out and setting: then `CC(=O)Nc1ccc(C(=O)N[C@H](C(=O)N[C@@H](C)C(=O)N[C@H](C(=O)C(=O)NCc2ccccc2)C(C)C)C(C)(C)C)cn1` [PVA-063], with < 200 nM.
On the same count and under the same terms, then `CC(C)[C@H](NC(=O)[C@H](C)NC(=O)[C@@H](NC(=O)c1ccccc1)C(C)(C)C)C(=O)C(=O)NCC1CCN(C)CC1` [PVA-163], with < 200 nM; and `CC(C)[C@H](NC(=O)[C@H](C)NC(=O)[C@H](Cc1ccccc1)NC(=O)c1cccc2ccccc12)C(=O)C(=O)NCC(=O)N1CCN(C)CC1` [PVA-095], with < 200 nM.
Regarding `CC(C)C[C@H](NC(=O)[C@H](C)NC(=O)[C@H](Cc1ccccc1)NC(=O)c1ccccc1)C(=O)C(=O)NC(C)C` [PVA-004], the IC50 (threshold stated in text) is < 200 nM.
Still for that read-out and setting: the value for `CC(C)C[C@H](NC(=O)[C@H](C)NC(=O)[C@H](Cc1ccccc1)NC(=O)c1ccccc1)C(=O)C(=O)NCc1ccccc1` [PVA-005] was < 20 nM.
On the same count and under the same terms, then `CC(C)[C@H](NC(=O)[C@H](C)NC(=O)[C@@H](NC(=O)c1ccccc1)C(C)(C)c1ccccc1)C(=O)C(=O)NCc1ccccc1` [PVA-121], with < 200 nM; and `CC(C)[C@H](NC(=O)[C@H](C)NC(=O)[C@H](Cc1cccc2ccccc12)NC(=O)c1cccc2ccccc12)C(=O)C(=O)NCC(=O)N1CCN(C)CC1` [PVA-138], with < 200 nM; and `CC(C)C(NC(=O)[C@H](C)NC(=O)[C@H](Cc1ccccc1)NC(=O)c1ccccc1)C(=O)C(=O)NCc1ccccn1` (some centres unmarked) [PVA-023], with < 200 nM.
The same measure, in the same setting: then `CC(C)[C@H](NC(=O)[C@H](C)NC(=O)[C@H](Cc1ccccc1)N1Cc2ccccc2C1=O)C(=O)C(=O)NC1CCCCC1` [PVA-104], with < 20 nM; and `CC(C)[C@H](NC(=O)[C@H](C)NC(=O)[C@@H](NC(=O)c1cccc(N2CCN(C)CC2)c1)C(C)(C)C)C(=O)C(=O)NCc1ccccc1` [PVA-173], with < 200 nM.
Regarding `CC(C)[C@H](NC(=O)[C@H](C)NC(=O)[C@@H](NC(=O)c1ccccc1)C(C)(C)C)C(=O)C(=O)NCc1ccc(C(F)(F)F)cc1` [PVA-181], the IC50 (threshold stated in text) was < 200 nM.
As for `CC(=O)Nc1cc(C(=O)N[C@H](C(=O)N[C@@H](C)C(=O)N[C@H](C(=O)C(=O)NC2CCCCC2)C(C)C)C(C)(C)C)ccn1` [PVA-062], the IC50 (threshold stated in text) is < 200 nM.
Still for that read-out and setting: the value for `CC(C)[C@H](NC(=O)[C@H](C)NC(=O)[C@H](Cc1ccccc1)NC(=O)c1ccccc1)C(=O)C(=O)NC1CCN(C)CC1` [PVA-083] was < 200 nM; that for `CC(C)[C@H](NC(=O)[C@H](C)NC(=O)[C@@H](NC(=O)c1ccccc1)C(C)(C)C)C(=O)C(=O)NCc1ccc(CN2CCCCC2)cc1` [PVA-165] was < 200 nM; that for `CC(C)[C@H](NC(=O)[C@H](C)NC(=O)[C@@H](NC(=O)c1ccnc2ccccc12)C12CC3CC(CC(C3)C1)C2)C(=O)C(=O)NCC(=O)N1CCN(C)CC1` [PVA-147] was < 20 nM.
On the same count and under the same terms, then `CC(C)C(NC(=O)[C@H](C)NC(=O)[C@H](Cc1ccccc1)NC(=O)c1ccccc1)C(=O)C(=O)NCc1cccnc1` (some centres unmarked) [PVA-024], with < 200 nM.
The same measure, in the same setting: then `CC(C)[C@H](NC(=O)[C@H](C)NC(=O)[C@@H](NC(=O)c1ccccc1)C(C)(C)C)C(=O)C(=O)NCc1cccc(N2CCN(C)CC2)c1` [PVA-190], with < 200 nM.
In the case of `CC(C)C(NC(=O)[C@H](C)NC(=O)[C@@H](Cc1ccccc1)NC(=O)c1ccncc1)C(=O)C(=O)NC1CCCCC1` (stereo in doubt) [PVA-020], the IC50 (threshold stated in text) is < 200 nM.
For the molecule `CC(C)[C@H](NC(=O)[C@H](C)NC(=O)[C@@H](NC(=O)c1ccccc1)C(C)(C)C)C(=O)C(=O)N[C@@H](C)c1ccccc1` [PVA-133], the IC50 (threshold stated in text) was < 200 nM.
The same measure, in the same setting: the value for `CCC[C@H](NC(=O)[C@H](Cc1ccccc1)NC(=O)c1ccccc1)C(=O)N[C@H](C(=O)C(=O)NC1CCCCC1)C(C)C` [PVA-088] was < 200 nM; that for `CC(C)[C@H](NC(=O)[C@H](C)NC(=O)[C@@H](NC(=O)c1ccncc1)C(C)(C)C)C(=O)C(=O)NCc1ccccc1` [PVA-128] was < 20 nM.
Turning to `CCCC[C@H](NC(=O)[C@H](C)NC(=O)[C@@H](NC(=O)c1ccncc1)C(C)(C)C)C(=O)C(=O)NC1CCCCC1` [PVA-039], the IC50 by setting is: (Table 1) 6.3 nM; (threshold stated in text) < 20 nM.
